{"source": "patent US8652463B1", "about": "“Dietary supplement to reduce the occurrence of migraines and treat their symptoms” (priority 2011, dated 2014)", "key": {"migraine headaches": {"test_system": "migraine headaches", "conditions": "for effect of preventive on migraine frequency: Patient two, before the regimen, ELAVIL 75 mg orally at bedtime, prednisone brief rounds"}, "acute migraine": {"test_system": "acute migraine", "test": "Patient case reports: acute (rescue/abortive) migraine therapy", "type": "in vivo, human", "conditions": "for success for acute migraine: historically, before the regimen"}, "[1]": {"conditions": "Patient three, history before the regimen"}}, "data": [{"molecule": "CC(C)(C#N)c1cc(Cn2cncn2)cc(C(C)(C)C#N)c1", "note": "[ARMIDEX]", "values": [{"measurement": "effect on migraines (adverse)", "setting": "migraine headaches; human, in vivo", "result": "more frequent, disabling, and less responsive"}]}, {"molecule": "CN(C)CCC=C1c2ccccc2CCc2ccccc21", "note": "[ELAVIL]", "values": [{"measurement": "effect of preventive on migraine frequency", "setting": "migraine headaches", "result": "did not reduce migraine frequency"}, {"measurement": "side effects of migraine preventive", "setting": "migraine headaches; human, in vivo", "result": "weight gain"}]}, {"molecule": "CN[C@@H]1CCc2[nH]c3ccc(C(N)=O)cc3c2C1", "note": "[FROVA]", "values": [{"measurement": "success for acute migraine", "setting": "acute migraine; Patient one", "result": "moderate success"}, {"measurement": "success as rescue drug", "setting": "acute migraine; Patient one, while using the regimen", "result": "with success"}]}, {"molecule": "CNS(=O)(=O)Cc1ccc2[nH]cc(CCN(C)C)c2c1", "note": "[IMITREX]", "values": [{"measurement": "course of response for acute migraine rescue", "setting": "acute migraine; [1]", "result": "worked well initially, but became ineffective"}, {"measurement": "response for acute migraine rescue", "setting": "acute migraine; [1]", "result": "poor response"}, {"measurement": "response of migraines to acute therapy", "setting": "acute migraine; Patient two, 100 mg orally, prior to breast cancer diagnosis, two to three migraines per month", "result": "responded well"}, {"measurement": "response to rescue medication", "setting": "acute migraine; Patient two, while using the regimen and ELAVIL", "result": "more responsive to a single dose"}]}, {"molecule": "CC(C)C[C@H](CN)CC(=O)O", "note": "[LYRICA]", "values": [{"measurement": "side effects of migraine preventive", "setting": "migraine headaches; human, in vivo", "result": "fluid retention and confusion"}]}, {"molecule": "CN(C)CCc1c[nH]c2ccc(Cn3cncn3)cc12", "note": "[MAXALT]", "values": [{"measurement": "response for acute migraine rescue", "setting": "acute migraine; [1]", "result": "poor response"}]}, {"molecule": "CC1(C)O[C@@H]2[C@@H](CO[C@@]3(COS(N)(=O)=O)OC(C)(C)O[C@@H]23)O1", "note": "[TOPAMAX]", "values": [{"measurement": "migraine reduction and severity with preventive", "setting": "migraine headaches; Patient one", "result": "poor migraine reduction and severity"}, {"measurement": "effect of preventive on migraine frequency", "setting": "migraine headaches", "result": "did not reduce migraine frequency"}, {"measurement": "side effects of migraine prevention", "setting": "migraine headaches; human, in vivo", "result": "cognitive dysfunction"}, {"measurement": "side effects of migraine preventive", "setting": "migraine headaches; human, in vivo", "result": "alopecia"}, {"measurement": "tolerance of migraine preventive", "setting": "migraine headaches; human, in vivo", "result": "poor tolerance"}]}, {"molecule": "O=C(c1ccccc1)c1ccc2n1CCC2C(=O)O", "note": "(stereo not shown) [TORADOL]", "values": [{"measurement": "response for acute migraine rescue", "setting": "acute migraine; [1]", "result": "poor response"}, {"measurement": "response to abortive therapy", "setting": "acute migraine; human, in vivo, po", "result": "good response"}]}, {"molecule": "Clc1ccc2nsnc2c1NC1=NCCN1", "note": "[ZANAFLEX]", "values": [{"measurement": "side effects of migraine prevention", "setting": "migraine headaches; human, in vivo", "result": "cognitive dysfunction"}]}, {"molecule": "CC(CN1c2ccccc2Sc2ccccc21)N(C)C", "note": "(stereo not shown) [phenegran]", "values": [{"measurement": "success for acute migraine", "setting": "acute migraine; Patient one", "result": "moderate success"}]}, {"molecule": "C[C@]12C=CC(=O)C=C1CC[C@@H]1[C@@H]2C(=O)C[C@@]2(C)[C@H]1CC[C@]2(O)C(=O)CO", "note": "[prednisone]", "values": [{"measurement": "effect of preventive on migraine frequency", "setting": "migraine headaches", "result": "short-lived migraine reduction"}]}, {"molecule": "botulinum toxin [BOTOX]", "values": [{"measurement": "migraine remission / frequency", "setting": "migraine headaches; human, in vivo", "result": "complete remission of migraines to once per month"}]}]}
